Data as given in ChEMBL document CHEMBL3751693, “Synthesis, antimicrobial evaluation and molecular modeling of 5-hydroxyisoquinolinium salt series; the effect of the hydroxyl moiety” (Bioorg Med Chem, 2016).

Legend:
Pichia kudriavzevii [1] = assay: Antimicrobial activity against Candida krusei E28 after 24 hrs by spectrophotometry; type: functional; conditions: E28, 24 h
[2] = test system: Staphylococcus epidermidis; assay: Antimicrobial activity against clinical isolate Staphylococcus epidermidis H 696608 after 48 hrs; type: functional; conditions: H 696608, 48 h
Lichtheimia corymbifera [3] = assay: Antimicrobial activity against Absidia corymbifera 272 after 48 hrs by spectrophotometry; type: functional; conditions: Lichtheimia corymbifera, 272, 48 h
Klebsiella pneumoniae [4] = assay: Antimicrobial activity against clinical isolate Klebsiella pneumoniae D 1175008 after 48 hrs; type: functional; conditions: D 1175008, 48 h
Candida albicans [5] = assay: Antimicrobial activity against Candida albicans ATCC 44859 after 48 hrs by spectrophotometry; type: functional; conditions: ATCC 44859, 48 h
Escherichia coli [6] = assay: Antimicrobial activity against clinical isolate Escherichia coli CCM 4517 after 48 hrs; type: functional; conditions: CCM 4517, 48 h
Candida tropicalis [7] = assay: Antimicrobial activity against Candida tropicalis 156 after 24 hrs by spectrophotometry; type: functional; conditions: Candida tropicalis, 156, 24 h
Candida albicans [8] = assay: Antimicrobial activity against Candida albicans ATCC 44859 after 24 hrs by spectrophotometry; type: functional; conditions: ATCC 44859, 24 h
Nakaseomyces glabratus [9] = assay: Antimicrobial activity against Candida glabrata 20/I after 48 hrs by spectrophotometry; type: functional
Klebsiella pneumoniae [10] = assay: Antimicrobial activity against clinical isolate Klebsiella pneumoniae D 1175008 after 24 hrs; type: functional; conditions: D 1175008, 24 h
Pseudomonas aeruginosa [11] = assay: Antimicrobial activity against clinical isolate Pseudomonas aeruginosa CCM 1961 after 120 hrs; type: functional; conditions: CCM 1961, 120 h
Trichosporon asahii [12] = assay: Antimicrobial activity against Trichosporon asahii 1188 after 48 hrs by spectrophotometry; type: functional; conditions: Trichosporon asahii, 1188, 48 h
Staphylococcus aureus [13] = assay: Antimicrobial activity against clinical isolate Staphylococcus aureus CCM 451608 after 48 hrs; type: functional; conditions: CCM 451608, 48 h
Pseudomonas aeruginosa [14] = assay: Antimicrobial activity against clinical isolate Pseudomonas aeruginosa CCM 1961 after 72 hrs; type: functional; conditions: CCM 1961, 72 h
[15] = test system: Trichophyton mentagrophytes; assay: Antimicrobial activity against Trichophyton mentagrophytes 445 after 72 hrs by spectrophotometry; type: functional; conditions: Trichophyton mentagrophytes, 445, 72 h
Klebsiella pneumoniae [16] = assay: Antimicrobial activity against clinical isolate ESBL-Klebsiella pneumoniae J 1436808 after 48 hrs; type: functional; conditions: J 1436808, 48 h
Staphylococcus aureus [17] = assay: Antimicrobial activity against clinical isolate methicillin-resistant Staphylococcus aureus H 599608 after 48 hrs; type: functional; conditions: H 599608, 48 h
Nakaseomyces glabratus [18] = assay: Antimicrobial activity against Candida glabrata 20/I after 24 hrs by spectrophotometry; type: functional
Aspergillus fumigatus [19] = assay: Antimicrobial activity against Aspergillus fumigatus 231 after 48 hrs by spectrophotometry; type: functional; conditions: Aspergillus fumigatus, 231, 48 h
Aspergillus fumigatus [20] = assay: Antimicrobial activity against Aspergillus fumigatus 231 after 24 hrs by spectrophotometry; type: functional; conditions: Aspergillus fumigatus, 231, 24 h
[21] = test system: Staphylococcus epidermidis; assay: Antimicrobial activity against clinical isolate Staphylococcus epidermidis H 696608 after 24 hrs; type: functional; conditions: H 696608, 24 h
Candida tropicalis [22] = assay: Antimicrobial activity against Candida tropicalis 156 after 48 hrs by spectrophotometry; type: functional; conditions: Candida tropicalis, 156, 48 h
Escherichia coli [23] = assay: Antimicrobial activity against clinical isolate Escherichia coli CCM 4517 after 24 hrs; type: functional; conditions: CCM 4517, 24 h
Staphylococcus aureus [24] = assay: Antimicrobial activity against clinical isolate Staphylococcus aureus CCM 451608 after 24 hrs; type: functional; conditions: CCM 451608, 24 h
Klebsiella pneumoniae [25] = assay: Antimicrobial activity against clinical isolate ESBL-Klebsiella pneumoniae J 1436808 after 24 hrs; type: functional; conditions: J 1436808, 24 h
Trichosporon asahii [26] = assay: Antimicrobial activity against Trichosporon asahii 1188 after 24 hrs by spectrophotometry; type: functional; conditions: Trichosporon asahii, 1188, 24 h
Enterococcus sp. [27] = assay: Antimicrobial activity against clinical isolate Enterococcus sp. J 1436508 after 48 hrs; type: functional; conditions: J 1436508, 48 h
[28] = Cytotoxicity against CHOK1 cells after 24 hrs by MTT assay; type: cell-based; conditions: Cricetulus griseus, CHO-K1, 24 h
Staphylococcus aureus [29] = assay: Antimicrobial activity against clinical isolate methicillin-resistant Staphylococcus aureus H 599608 after 24 hrs; type: functional; conditions: H 599608, 24 h
Enterococcus sp. [30] = assay: Antimicrobial activity against clinical isolate Enterococcus sp. J 1436508 after 24 hrs; type: functional; conditions: J 1436508, 24 h
[31] = test system: Trichophyton mentagrophytes; assay: Antimicrobial activity against Trichophyton mentagrophytes 445 after 120 hrs by spectrophotometry; type: functional; conditions: Trichophyton mentagrophytes, 445, 120 h
Lichtheimia corymbifera [32] = assay: Antimicrobial activity against Absidia corymbifera 272 after 24 hrs by spectrophotometry; type: functional; conditions: Lichtheimia corymbifera, 272, 24 h
Pichia kudriavzevii [33] = assay: Antimicrobial activity against Candida krusei E28 after 48 hrs by spectrophotometry; type: functional; conditions: E28, 48 h

**Q.** With `CCCCCCCCCCCC[n+]1ccc2ccccc2c1` [LAURYL ISOQUINOLINIUM BROMIDE] as the molecule, how does the MIC (Pichia kudriavzevii [1]) read?
**A.** 0.5 µM

**Q.** What about the MBC [2] of the same molecule?
**A.** 1 µM

**Q.** And the MIC [2]?
**A.** 0.5 µM

**Q.** And the MFC (Lichtheimia corymbifera [3])?
**A.** 250 µM

**Q.** And the MIC (Lichtheimia corymbifera [3])?
**A.** 250 µM

**Q.** And the MBC (Klebsiella pneumoniae [4])?
**A.** 63 µM

**Q.** And the MIC (Klebsiella pneumoniae [4])?
**A.** 16 µM

**Q.** And the MFC (Candida albicans [5])?
**A.** 1 µM

**Q.** And the MIC (Candida albicans [5])?
**A.** 0.5 µM

**Q.** And the MBC (Escherichia coli [6])?
**A.** 31 µM

**Q.** And the MIC (Escherichia coli [6])?
**A.** 7.8 µM

**Q.** What about the MIC (Candida tropicalis [7]) of the same molecule?
**A.** 0.5 µM

**Q.** And the MIC (Candida albicans [8])?
**A.** 0.5 µM

**Q.** What about the MFC (Nakaseomyces glabratus [9]) of the same molecule?
**A.** 1 µM

**Q.** And the MIC (Nakaseomyces glabratus [9])?
**A.** 0.5 µM

**Q.** What about the MIC (Klebsiella pneumoniae [10]) of the same molecule?
**A.** 16 µM

**Q.** What about the MBC (Pseudomonas aeruginosa [11]) of the same molecule?
**A.** 250 µM

**Q.** What about the MIC (Pseudomonas aeruginosa [11]) of the same molecule?
**A.** 250 µM

**Q.** And the MFC (Trichosporon asahii [12])?
**A.** 63 µM

**Q.** And the MIC (Trichosporon asahii [12])?
**A.** 63 µM

**Q.** And the MBC (Staphylococcus aureus [13])?
**A.** 1 µM

**Q.** And the MIC (Staphylococcus aureus [13])?
**A.** 0.5 µM

**Q.** And the MIC (Pseudomonas aeruginosa [14])?
**A.** 250 µM

**Q.** What about the MIC [15] of the same molecule?
**A.** 7.8 µM

**Q.** What about the MBC (Klebsiella pneumoniae [16]) of the same molecule?
**A.** 125 µM

**Q.** What about the MIC (Klebsiella pneumoniae [16]) of the same molecule?
**A.** 63 µM

**Q.** And the MBC (Staphylococcus aureus [17])?
**A.** 1 µM

**Q.** And the MIC (Staphylococcus aureus [17])?
**A.** 0.5 µM

**Q.** What about the MIC (Nakaseomyces glabratus [18]) of the same molecule?
**A.** 0.5 µM

**Q.** What about the MFC (Aspergillus fumigatus [19]) of the same molecule?
**A.** 125 µM

**Q.** And the MIC (Aspergillus fumigatus [19])?
**A.** 125 µM

**Q.** What about the MIC (Aspergillus fumigatus [20]) of the same molecule?
**A.** 125 µM

**Q.** And the MIC [21]?
**A.** 0.5 µM

**Q.** What about the MFC (Candida tropicalis [22]) of the same molecule?
**A.** 1 µM

**Q.** What about the MIC (Candida tropicalis [22]) of the same molecule?
**A.** 0.5 µM

**Q.** What about the MIC (Escherichia coli [23]) of the same molecule?
**A.** 7.8 µM

**Q.** And the MIC (Staphylococcus aureus [24])?
**A.** 0.5 µM

**Q.** What about the MIC (Klebsiella pneumoniae [25]) of the same molecule?
**A.** 63 µM

**Q.** And the MIC (Trichosporon asahii [26])?
**A.** 63 µM

**Q.** What about the MBC (Enterococcus sp. [27]) of the same molecule?
**A.** 63 µM

**Q.** And the MIC (Enterococcus sp. [27])?
**A.** 7.8 µM

**Q.** What about the IC50 [28] of the same molecule?
**A.** 15 µM

**Q.** What about the MIC (Staphylococcus aureus [29]) of the same molecule?
**A.** 0.5 µM

**Q.** What about the MIC (Enterococcus sp. [30]) of the same molecule?
**A.** 7.8 µM

**Q.** What about the MFC [31] of the same molecule?
**A.** 16 µM

**Q.** And the MIC [31]?
**A.** 7.8 µM

**Q.** What about the MIC (Lichtheimia corymbifera [32]) of the same molecule?
**A.** 250 µM

**Q.** And the MFC (Pichia kudriavzevii [33])?
**A.** 1 µM

**Q.** What about the MIC (Pichia kudriavzevii [33]) of the same molecule?
**A.** 0.5 µM
